Consider four molecules from patent US20110009332A1, “Therapeutic Treatment Of Wounds” (SOUTHWEST RESEARCH INSTITUTE, priority 2009, published 2011).

One test deals with TGF-β1. As to the kind of experiment: TGF-β1 gene expression (qPCR, normalized over 18S) in human dermal fibroblasts. Type of test: cell-based. As to the method: An examination of gene expression of TFG-β1 was conducted using a number of proteasome inhibitors including, proteasome inhibitor-1, curcumin, MG-132 and bortezomib. Human neonatal dermal fibroblasts (AllCells, Catalog No. HN006001) were maintained in Dulbecco's modified Eagle's medium (DMEM) supplemented with 10% fetal bovine serum. Early passage cells were plated at 2×10^4 cells/cm^2 and grown in humidified 5% CO2 at 37° C. for 24 hours. Spent media was replaced the following day with assay media including Proteasome inhibitor-1 was added in DMEM at 1 μM and 0.1 μM. Untreated cells were used as the control group. For the human osteogenesis PCR array, the experimental group was treated only at 1 μM. In addition, in separate trials, spent media was replace by assay media of curcumin added in DMEM at 10 μM and 100 μM, MG-132 in DMEM at 0.1 μM and 1 μM, and bortezomib in DMEM at 0.1 μm and 1 μM.
Phenol-chloroform extraction was performed to isolate the total RNA for real time polymerase chain reaction array. More specifically, the total RNA was prepared using TRI REAGENT (Ambion, product number 9738), wherein the total RNA was obtained from the human neonatal dermal fibroblasts. Note that isolation was performed as per the instructions provided with the TRI REAGENT. The RNA was used for subsequent quantitative polymerase chain reaction (qPRC) gene expression of TFG-β1 measured using hydrolysis probes (TAQMAN probes available from Applied Biosystems) as described further below.
Concentration and integrity of the obtained total RNA was assessed by absorbance in a spectrophotometer at 260 nm and 280 nm and by electrophoresis in 1% agarose with formaldehyde loading dye. For TAQMAN gene expression assays, cDNA was synthesized from 2 μg of total RNA using the High Capacity cDNA Reverse Transcription Kit (Applied Biosystems, product number 4368814), again following the protocol supplied with the kit. The resulting cDNA was diluted 1:10.
For TAQMAN gene expression, gene-specific fluorescent labeled TAQMAN primers for FAM-TFG-β1 (Applied Biosystems, product number Hs00998130.m1) and TAQMAN reference VIC-18S ribosomal RNA (Applied Biosystems, product number 4310893E) were used to target the gene of interest. A cocktail of universal master mix (Applied Biosystems, product number 4369016) was prepared individually for both set of primers which contained Taq Polymerase, dNTPs, and buffer. Template cDNA's were added separately to respective individual wells in triplicate samples. PCR was performed on StepOne Plus Real Time System instrument (Applied Biosystems). The amplification program consisted of 1 cycle of 95° C. with 10 minute hold (hot start) followed by 50 cycles of 95° C. with 15 second annealing hold and 1 minute 60° C. specified acquisition hold.
For human osteogenisis PCR array, total RNA was prepared using silica matrix purification using RNEASY MINI KIT (Qiagen, product number 74101) according to the manufacturer's recommendations. cDNA was synthesized from 1 μg of purified DNA-free RNA accordingly to RT^2First Strand Kit (SABiosciences, C-03). The resulting cDNA was diluted 1:30 and amplified. The procedure for the PCR array using real-time PCR is based on the RT^2 Profiler PCR array system instructions for Human Osteogenesis (SABiosciences, product number PAHS-026C). A cocktail reaction mix was setup as recommended by the PCR manufacturer (SABiosceiences, product number PA-012). PCR was performed using the same temperature parameters as used with the StepOne Plus Real Time System instrument. The Ct value of endogenous reference gene (i.e. 18s) was used to control for input RNA and then used to normalize target gene (i.e. TFG-β1) tested from the same cDNA sample ([…]), and then calibrated to an internal reference sample ([…]). Change in gene expression was determined by the expression 2̂-([…]). […]

For a further test, the system named is rat skin. As to the kind of experiment: Tensile strength of rat skin after 28 days of treatment (Example 2). Type of test: in vivo, rats. On the set-up: Tensile strength of rat skin, Mean: unit not given here. The following applies: for Tensile strength of rat skin, individual samples: 100 μl per wound site daily for 5 days, samples 1-5, in N/mm²; for Tensile strength of rat skin, individual samples / Tensile strength of rat skin, Mean: after 28 days; for Tensile strength of rat skin, Mean: control mean 3.12114. As for the experimental part:
Testing of PS-1 was performed in rats and was provided at 1% and 5% in DMSO. The rats received 100 μl per wound site. The compound was administered daily for 5 days and skin was collected at 7 days, 14 days and 28 days. The biomechanical tensile strength of the skin was measured. Table 2 illustrates the testing data after 28 days for a control sample without treatment, 1% PS-1 in DMSO and 5% PS-1 in DMSO.

The target in the next test is 20S proteasomes (Homo sapiens, UniProt P28074). The experiment in a line: Inhibition of 20S proteasome enzyme activity. The format is biochemical. The note with it: 0 nM to 10,000 nM, FIGS. 7-9. As for the experimental part:
The IC50 may be understood as the amount of a particular substance/molecule needed to inhibit a given biological process in vitro by 50% and may be an indicator of the potency of a compound. The activity of the proteasome may be quantified by measuring the amount of fluorescence produced by cleavage of a fluorogenic substrate, such as LLVY-AMC, which when released by proteasomal cleavage, may emit fluorescent light.
The enzyme activity of 20S proteasomes was measured upon increasing addition of the proteasome inhibitors PS-1, curcumin and genestein in concentrations ranging from 0 nM to 10,000 nM. In particular, FIG. 7 illustrates the inhibition of 20S proteasomes upon the addition of PS-1. […] FIG. 8 illustrates the inhibition of the 20S proteasomes upon the addition of curcumin. […] FIG. 9 illustrates the inhibition of the 20S proteasomes upon the addition of genestein.

Test [1] has as its system TGF-β1 protein expression in human dermal fibroblast cells. As to the kind of experiment: TGF-β1 protein expression in normal and PMA-challenged human dermal fibroblasts. The format is cell-based. The following applies: PS-1 0 nM to 10000 nM. As to the method:
Cyto-toxicity analysis was performed to illustrate the inhibition of TGF-131 in human dermal fibroblasts. Both normal human dermal fibroblast cells (i.e., undamaged or non-wounded skin cells) and challenged (damaged) human dermal fibroblast cells were treated with concentrations of PS-1 ranging from 0 nM to 10000 nM and the effect of the various PS-1 concentrations on the normal and challenged cells was measured. It is noted that the challenged human dermal fibroblast cells were treated in vitro with 10 nM of phorbol 12-myristate 13-acetate (PMA) to simulate wounding. […] FIG. 11 illustrates TGF-131 protein expression upon addition of PS-1 in cells challenged by the addition of the 10 nM of PMA.

Setting [2] is: 0.1 μM inhibitor, FIG. 30, non-treated 1.50 (MG132) / 1.43 (bortezomib).
Where [3] appears, read: 1 μM inhibitor, FIG. 30, non-treated 1.50 (MG132) / 1.43 (bortezomib).

Structures are written as SMILES. Several values for one entry are separate records, joined by “and”; a condition that tells them apart may be missing. Identical values can stand only once. Where a SMILES comes first, the peptide text is derived from it. The star is where a group is joined. Cbz = O=C(OCc1ccccc1)*; OtBu = CC(C)(C)O*

For the molecule `CC(C)C[C@H](NC(=O)[C@H](Cc1ccccc1)NC(=O)c1cnccn1)B(O)O` [bortezomib], the results for the “TFG-β1/18 mRNA levels” value in the test on TGF-β1 (setting [2]) and in the test with TGF-β1 (setting [3]) were 1.99 a.u and 1.97 a.u, respectively.

Take `CC(C)C[C@@H](C=O)NC(=O)[C@H](CC(C)C)NC(=O)[C@H](CC(C)C)NC(=O)OCc1ccccc1` [MG132] (Cbz-Leu-Leu-Leu-aldehyde): the “TFG-β1/18 mRNA levels” value was determined as 2.12 a.u in the test with TGF-β1 (setting [2]) and 1.49 a.u with TGF-β1 (setting [3]).

Turning to `CC[C@H](C)[C@H](NC(=O)OCc1ccccc1)C(=O)N[C@@H](CCC(=O)OC(C)(C)C)C(=O)N[C@@H](C)C(=O)N[C@H](C=O)CC(C)C` [PS-1, Z-Ile-Glu(OBu^t)-Ala-Leu-H] (Cbz-IE(OtBu)AL-aldehyde), the “Tensile strength of rat skin, individual samples” value is 3.707 and 3.47 and 3.655 and 4.169 and 4.476 in the test on rat skin (1% PS-1 in DMSO); 4.067 and 4.379 and 3.805 and 5.042 and 5.192 in the test on rat skin (5% PS-1 in DMSO). Besides, the entries for the “Tensile strength of rat skin, Mean” value with rat skin (1% PS-1 in DMSO) and in the test on rat skin (5% PS-1 in DMSO) were 3.895 and 4.497, respectively. Further, the “strength of rat skin tissue (in words)” value with rat skin (5% PS-1 in DMSO, 28 days, FIG. 6) is reported as “relatively stronger tissue”. In addition, the “enzyme activity of 20S proteasomes with increasing inhibitor concentration (in words)” value at 20S proteasomes is reported as “enzyme activity decreased”. Besides, the “TFG-β1/18 mRNA levels” value with TGF-β1 (0.1 μM PS-1, FIG. 28, nontreated 1.15, decrease relatively statistically insignificant) is around 1.03 a.u; with TGF-β1 (1.0 μM PS-1, FIG. 28, nontreated 1.15, decrease relatively statistically insignificant), around 1.11 a.u. Moreover, the “TGF-β1 protein expression (in words)” value in test [1] (cells challenged with 10 nM PMA, FIG. 11) is “reduced TGF-β1 protein expression to similar levels seen in normal cells”; in test [1] (normal human dermal fibroblast cells, FIG. 10), “relatively little change in TGF-β1 protein expression”.

On to `COc1cc(/C=C/C(=O)CC(=O)/C=C/c2ccc(O)c(OC)c2)ccc1O` [curcumin], for which, on 20S proteasomes, the “enzyme activity of 20S proteasomes with increasing inhibitor concentration (in words)” value is “shown to decrease as well”. The “TFG-β1/18 mRNA levels” value with TGF-β1 (10 μM curcumin, FIG. 29, non-treated 1.15) came out at 0.644 a.u; in the test on TGF-β1 (100 μM curcumin, FIG. 29, non-treated 1.15) it was 1.53 a.u.
